Here are results for 35 compounds from patent US9586956B2, “Isoquinoline and naphthyridine derivatives” (Genentech, Inc., priority 2012, dated 2017).

The target in the assay is T1, purified human MAP4K4 kinase domain (Homo sapiens, UniProt O95819).
T1 construct: purified human MAP4K4 kinase domain
T1 sequence (O95819 25-289 limits assumed): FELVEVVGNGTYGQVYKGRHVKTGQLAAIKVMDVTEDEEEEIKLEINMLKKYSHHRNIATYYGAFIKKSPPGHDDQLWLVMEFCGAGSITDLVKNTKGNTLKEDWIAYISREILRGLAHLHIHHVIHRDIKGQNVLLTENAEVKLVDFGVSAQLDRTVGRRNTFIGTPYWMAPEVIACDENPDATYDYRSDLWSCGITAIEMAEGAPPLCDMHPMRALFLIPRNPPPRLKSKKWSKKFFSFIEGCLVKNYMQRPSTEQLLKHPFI
The assay is described as follows: MAP4K4 Inhibition Assay Protocol No. 2 (Z'-LYTE FRET). The assay is classed as biochemical. The note with it: Assay 2; 1 nM enzyme, 10 uM ATP, 60 min. The source says: The kinase activity of purified human MAP4K4 kinase domain was monitored using Z'-LYTE™ technology from Invitrogen to determine inhibition constants (IC50) of small molecule inhibitors. The Z'-LYTE™ biochemical assay employs a fluorescence-based, coupled-enzyme format and is based on the differential sensitivity of phosphorylated and non-phosphorylated peptides to proteolytic cleavage. In the primary reaction, the kinase transfers the gamma-phosphate of ATP to a single tyrosine, serine or threonine residue in a synthetic FRET-peptide. In the secondary reaction, a site-specific protease recognizes and cleaves non-phosphorylated FRET-peptides. Phosphorylation of FRET-peptides suppresses cleavage by the Development Reagent. Cleavage disrupts FRET between the donor (i.e., coumarin) and acceptor (i.e., fluorescein) fluorophores on the FRET-peptide, whereas uncleaved, phosphorylated FRET-peptides maintain FRET. To determine inhibition constants (IC50), compounds were serially diluted in DMSO and added to 10 uL kinase reactions containing 1 nM purified MAP4K4 enzyme, 2 uM ser/thr7 Z'-LYTE™ substrate, 10 uMATP, 50 mM Hepes (pH 7.5), 10 mM MgCl2, 1 mM EGTA, 0.01% Brij-35, and 2% DMSO. Reactions were incubated at room temperature in Corning Black 384 well plates (Corning#3573) for 60 minutes and stopped by the addition of 5 uL of Z'-LYTE™ development reagent A and incubated at room temp for 60 minutes. The plate is then analyzed on Perkin Elmer Envision by FRET mode. The high ratio of coumarin/fluorescein represents 0% phosphorylation rate while low ratio of coumarin/fluorescein represents 100% phosphorylation rate. The following equations are used to determine extent of peptide phosphorylation or inhibition: […]
One may read the IC50 as the concentration that gives 50% inhibition. `C[C@H](O)C(=O)N1CC(NC(=O)c2cnc(N)c3nc(-c4cccc(F)c4)ccc23)C1` [Example 25, (S)-8-amino-2-(3-fluorophenyl)-N-(1-(2-hydroxypropanoyl)azetidin-3-yl)-1,7-naphthyridine-5-carboxamide] yielded an IC50 of 0.00918 µM.
As to `CC(=O)N1CC(NC(=O)c2cnc(N)c3nc(-c4cccc(F)c4)ccc23)C1` [Example 26, N-(1-acetylazetidin-3-yl)-8-amino-2-(3-fluorophenyl)-1,7-naphthyridine-5-carboxamide], the IC50 amounted to 0.00411 µM.
The figure for `Nc1ncc(C(=O)NC2CN(C(=O)N3CCOCC3)C2)c2ccc(-c3cccc(F)c3)nc12` [Example 27, 8-amino-2-(3-fluorophenyl)-N-(1-(morpholine-4-carbonyl)azetidin-3-yl)-1,7-naphthyridine-5-carboxamide] is 0.0147 µM; for `Nc1ncc(-c2nnco2)c2ccc(-c3cccc(F)c3)nc12` [Example 28, 2-(3-fluorophenyl)-5-(1,3,4-oxadiazol-2-yl)-1,7-naphthyridin-8-amine] it is 0.002 µM.
For the compound `CCC(=O)NC1CN(C(=O)c2cnc(N)c3nc(-c4cccc(F)c4)ccc23)C1` [Example 29, N-(1-(8-amino-2-(3-fluorophenyl)-1,7-naphthyridine-5-carbonyl)azetidin-3-yl)propionamide], it took 0.0608 µM to reach half-maximal inhibition (IC50).
Regarding `Nc1ncc(C(=O)N2CC(NC(=O)C3CC3)C2)c2ccc(-c3cccc(F)c3)nc12` [Example 30, N-(1-(8-amino-2-(3-fluorophenyl)-1,7-naphthyridine-5-carbonyl)azetidin-3-yl)cyclopropanecarboxamide], the IC50 stood at 0.0139 µM.
Compound `Nc1ncc(C(=O)N2CC(N(C(=O)C3CC3)C(=O)C3CC3)C2)c2ccc(-c3cccc(F)c3)nc12` [Example 31, N-(1-(8-amino-2-(3-fluorophenyl)-1,7-naphthyridine-5-carbonyl)azetidin-3-yl)-N-(cyclopropanecarbonyl)cyclopropanecarboxamide] yielded an IC50 of 0.284 µM.
In turn, `CC(=O)NC1CN(C(=O)c2cnc(N)c3nc(-c4cccc(F)c4)ccc23)C1` [Example 32, N-(1-(8-amino-2-(3-fluorophenyl)-1,7-naphthyridine-5-carbonyl)azetidin-3-yl)acetamide] returned an IC50 of 0.0198 µM. Compared with the last compound, the IC50 is about 14-fold lower.
Compound `Nc1ncc(C(=O)NC2CCC2)c2ccc(-c3cccc(F)c3)nc12` [Example 33, 8-amino-N-cyclobutyl-2-(3-fluorophenyl)-1,7-naphthyridine-5-carboxamide] displayed an IC50 of 0.00165 µM. Compared with the last compound, the IC50 is about 12-fold lower.
Turning to `CNC(=O)N1CC(NC(=O)c2cnc(N)c3nc(-c4cccc(F)c4)ccc23)C1` [Example 34, 8-amino-2-(3-fluorophenyl)-N-(1-(methylcarbamoyl)azetidin-3-yl)-1,7-naphthyridine-5-carboxamide], half-maximal inhibition (IC50) required 0.0016 µM.
Compound `CCC(=O)N1CC(NC(=O)c2cnc(N)c3nc(-c4cccc(F)c4)ccc23)C1` [Example 35, 8-amino-2-(3-fluorophenyl)-N-(1-propionylazetidin-3-yl)-1,7-naphthyridine-5-carboxamide] showed an IC50 of 0.00378 µM.
As to `Nc1ncc(C(=O)NC2CN(C(=O)C3CC3)C2)c2ccc(-c3cccc(F)c3)nc12` [Example 37, 8-amino-N-(1-(cyclopropanecarbonyl)azetidin-3-yl)-2-(3-fluorophenyl)-1,7-naphthyridine-5-carboxamide], the IC50 came to 0.00294 µM.
The figure for `Nc1ncc(C(=O)NC2COC2)c2ccc(-c3cccc(F)c3)nc12` [Example 38, 8-amino-2-(3-fluorophenyl)-N-(oxetan-3-yl)-1,7-naphthyridine-5-carboxamide] is 0.00569 µM.
In turn, `COCC(=O)N1CC(NC(=O)c2cnc(N)c3nc(-c4cccc(F)c4)ccc23)C1` [Example 39, 8-amino-2-(3-fluorophenyl)-N-(1-(2-methoxyacetyl)azetidin-3-yl)-1,7-naphthyridine-5-carboxamide] had an IC50 of 0.0044 µM.
Compound `CC(C)CNC(=O)c1cnc(N)c2nc(-c3cccc(F)c3)ccc12` [Example 40, 8-amino-2-(3-fluorophenyl)-N-isobutyl-1,7-naphthyridine-5-carboxamide] returned an IC50 of 0.00563 µM.
`CN(C(=O)c1cnc(N)c2nc(-c3cccc(F)c3)ccc12)C1CN(C(=O)C2CC2)C1` [Example 41, 8-amino-N-(1-(cyclopropanecarbonyl)azetidin-3-yl)-2-(3-fluorophenyl)-N-methyl-1,7-naphthyridine-5-carboxamide] returned an IC50 of 1.2 µM.
Compound `Nc1ncc(-c2ncn[nH]2)c2ccc(-c3cccc(F)c3)nc12` [Example 42, 2-(3-fluorophenyl)-5-(1H-1,2,4-triazol-5-yl)-1,7-naphthyridin-8-amine] came in with an IC50 of 0.00832 µM.
Regarding `Nc1ncc(-c2cn(CCN3CCOCC3)cn2)c2ccc(-c3cccc(F)c3)nc12` [Example 43, 2-(3-fluorophenyl)-5-(1-(2-morpholinoethyl)-1H-imidazol-4-yl)-1,7-naphthyridin-8-amine], the IC50 worked out at 0.00248 µM.
With `Nc1ncc(C(=O)NC2CN(C(=O)C3CC3)C2)c2ccc(-c3ccnc(F)c3)nc12` [Example 44, 8-amino-N-(1-(cyclopropanecarbonyl)azetidin-3-yl)-2-(2-fluoropyridin-4-yl)-1,7-naphthyridine-5-Carboxamide], the IC50 was determined as 0.00263 µM. The IC50 values of the last two compounds are within 1.5-fold of each other.
`Nc1ncc(CNS(=O)(=O)C2CC2)c2ccc(-c3cccc(F)c3)cc12` [Example 134, N-[[1-amino-7-(3-fluoro-phenyl)-4-isoquinolyl]methyl] cyclopropanesulfonamide] registered an IC50 of 0.155 µM.
`CNC(=O)N1CCC(NC(=O)c2cnc(N)c3cc(-c4cccc(F)c4)ccc23)C1` (centres unmarked) [Example 135, 1-amino-7-(3-fluorophenyl)-N-[1-(methylcarbamoyl)pyrrolidin-3-yl] isoquinoline-4-carboxamide]: the IC50 was 0.162 µM.
`Nc1ncc(CNC(=O)c2ccccc2)c2ccc(-c3cccc(F)c3)cc12` [Example 136, N-[[1-amino-7-(3-fluoro-phenyl)-4-isoquinolyl]methyl]benzamide] displayed an IC50 of 0.919 µM. This IC50 is about 5.7-fold higher than that of the compound before.
`Nc1ncc(-c2cc(CO)ccn2)c2ccc(-c3cccc(F)c3)cc12` [Example 137, [2-[1-amino-7-(3-fluoro-phenyl)-4-isoquinolyl]-4-pyridyl]methanol]: it took 0.0106 µM to reach half-maximal inhibition (IC50).
`Cn1ccc(-c2cnc(N)c3cc(-c4cccc(F)c4)ccc23)n1` [Example 138, 7-(3-fluorophenyl)-4-(1-methylpyrazol-3-yl) isoquinolin-1-amine]: the midpoint of inhibition, the IC50, lay at 0.0145 µM.
For the compound `CCOC(=O)c1cnc(N)c2nc(-c3cccc(OC(F)(F)F)c3)ccc12` [Example 139, ethyl 8-amino-2-[3-(trifluoro-methoxy)phenyl]-1,7-naphthyridine-5-carboxylate], the IC50 was found to be 0.00216 µM. This IC50 lies about 6.7-fold lower than the previous one.
For `CCOC(=O)c1cnc(N)c2nc(-c3cccc(OC(F)F)c3)ccc12` [Example 140, ethyl 8-amino-2-[3-(difluoro-methoxy)phenyl]-1,7-naphthyridine-5-carboxylate], it took 0.00769 µM to reach half-maximal inhibition (IC50). Compared with the last compound, the IC50 is about 3.6-fold higher.
As to `CCOC(=O)c1cnc(N)c2nc(-c3ccnc(C)c3)ccc12` [Example 141, ethyl 8-amino-2-(2-methyl-4-pyridyl)-1,7-naphthyridine-5-carboxylate], 0.00339 µM corresponded to half-maximal inhibition (IC50).
The figure for `CCOC(=O)c1cnc(N)c2nc(-c3cccc(S(=O)(=O)N(C)C)c3)ccc12` [Example 142, ethyl 8-amino-2-[3-(dimethyl-sulfamoyl)phenyl]-1,7-naphthyridine-5-carboxylate] is 0.48 µM; for `CCOC(=O)c1cnc(N)c2nc(-c3cccc(S(C)(=O)=O)c3)ccc12` [Example 143, ethyl 8-amino-2-(3-methyl-sulfonylphenyl)-1,7-naphthyridine-5-carboxylate] it is 0.0636 µM; for `CCOC(=O)c1cnc(N)c2nc(-c3cccc(C(=O)N(C)C)c3)ccc12` [Example 144, ethyl 8-amino-2-[3-(dimethyl-carbamoyl)phenyl]-1,7-naphthyridine-5-carboxylate] it is 0.0031 µM.
`CCOC(=O)c1cnc(N)c2nc(-c3cc(F)cc(F)c3)ccc12` [Example 145, ethyl 8-amino-2-(3,5-difluoro-phenyl)-1,7-naphthyridine-5-carboxylate] gave a concentration for half-maximal inhibition (IC50) of 0.00184 µM. This IC50 lies about 1.7-fold lower than the previous one.
The figure for `CCOC(=O)c1cnc(N)c2nc(-c3cccc(OC(C)C)c3)ccc12` [Example 146, ethyl 8-amino-2-(3-isopropoxy-phenyl)-1,7-naphthyridine-5-carboxylate] is 0.0326 µM.
The compound `CCOC(=O)c1cnc(N)c2nc(-c3cccc(C#N)c3)ccc12` [Example 147, ethyl 8-amino-2-(3-cyanophenyl)-1,7-naphthyridine-5-carboxylate] yielded a concentration for half-maximal inhibition (IC50) of 0.00145 µM.
On to `CCOC(=O)c1cnc(N)c2nc(-c3cccc(OC)c3)ccc12` [Example 148, ethyl 8-amino-2-(3-methoxy-phenyl)-1,7-naphthyridine-5-carboxylate], for which the midpoint of inhibition, the IC50, lay at 0.00853 µM.
For `CCOC(=O)c1cnc(N)c2nc(-c3ccc(Cl)cc3)ccc12` [Example 149, ethyl 8-amino-2-(4-chlorophenyl)-1,7-naphthyridine-5-carboxylate], inhibition was half-maximal at 0.0278 µM (IC50).
